In patent US20090149536A1, “4-OXO-(ISO)TRETINOIN FOR THE TOPICAL TREATMENT OF SEVERE DERMATOLOGICAL DISORDERS” (priority 2005, published 2009):
Where two headings read alike, the source gives them in different places.

Key:
[1] = in vivo
Text: Suitable dosages are described herein below and can be determined by a doctor based on usual parameters like e.g. the weight and age of the patient, and the current status of the disease.

[2] = system: severe acne on back or chest; settings: 2 g cream, 0.5% 4-Oxotretinoin or up to 1% 4-Oxo-Isotretinoin, topical on back, 4 weeks minimum; Leeds grade 5 to 8
Text: Fifteen male patients aged between 18 and 65 with severe acne on back or chest rated a grade of 5 to 8 according to the Leeds revised acne grading system (Journal of Dermatological Treatment (1989) 9, 215-220) are enrolled in a pilot study.
After completion of the treatment, the grade of the acne in the designated treatment area is once more determined and compared with the surrounding area of the skin.

lipogenesis in epidermis = experiment: study of lipogenesis in skin biopsies (14C-Dextrose integrated in epidermis lipids); assay type: in vivo, Fuzzy rats
Procedure: At the end of the treatment, animals were anaesthetized with Pentobarbital 70 mg/kg by IP route. For each rat, two biopsies of 3-mm of dorsal skin per treated region with test substances were collected. Each biopsy was weighed. Rats were sacrificed by inhalation of CO2.
The biopsies (from 175 to 466 mg) were incubated in 1 ml of KRB in presence of 5 μCi D-[U-^14C]-Dextrose/ml at 37° C., 5% CO2 for 3 h.
After incubation, biopsies were rinsed 3 times with 3 ml of KRB. Dermis and epidermis were separated according to method described by Levang A. K. et al..
So, skin biopsies were soaked in water at 60° C. for 45 s. The skin was then removed and blotted dry and pinned with the dermal skin side down. The epidermis and dermis were separated by scrapping and epidermis was weighted.
Each fraction (100 mg) epidermis was cut into small fragments by using scalpels. Fragments were homogenized with chloroform:methanol [(2:1; v:v), Ref. C2432, batch No. 055K0070, Sigma, France: Ref M3641-1L, batch No. 104K3641, Sigma, France] according to the ratio 50 mg of tissue/ml of chloroform:methanol (2:1; v:v) with Potter-Elvehjem type of homogenizer (Ref. 48780, Dutscher, France).
Then, the mixture was washed with 0.2 volume of water. Two phases were separated by centrifugation during 20 min at 800 g.
The rate of lipid extraction was calculated as following: • R=(dpm[4-14C]Cholesterol after extraction)/dpm[4-14C]Cholesterol before extraction×100
The lipogenesis was evaluated as the number of dpm/100 mg tissue. • Lipogenesis=cpm×R×AS (D-[U-^14C]-Dextrose)
At the end of treatment (D25), rats were anaesthetized, skin biopsies were collected and lipogenesis was assessed. Briefly, biopsies were incubated with ^14C-Dextrose in Krebs-Ringer buffer for 3 h at 37° C., 5% CO2. After separation of dermis and epidermis, total lipids were extracted from epidermis. Radioactivity was counted using a β-counter.

sebaceous gland size = experiment: study of sebaceous gland size in skin biopsies (histology); assay type: in vivo, Fuzzy rats; settings: D25
Procedure: The other biopsies were transferred in fixative solution of 4% Paraformaldehyde Fixative (PAF; Ref. 1.04003.5000, Merck, France) solution for further paraffin-embedding and sebaceous gland size analysis.
The size of sebaceous gland was evaluated by histological study of biopsies.
Biopsies fixed in PAF 4% were paraffin-embedded by the ASP 300 (Leica) automat according to the following procedure:
Histological sections of biopsies were realized (5 sections/biopsy).
Each one was colored by Hemalun/Eosin/Safran OTTIX coloration method according to the following protocol:
A microscopic observation by using a CKX41 light microscope (Olympus, France) was performed. Each sebaceous gland within 1 section/biopsy was numerized with a digital camera (Pwershot A80, Canon) and was measured by using ImageJ software 1.32j.
Each sebaceous gland within 1 section/biopsy was numerized with a digital camera (Pwershot A80, Canon) and was measured by using ImageJ software 1.32j. The mean of gland size was calculated for each group.
At the end of treatment (D25; Oct. 13, 2006), rats were anaesthetized, skin biopsies were collected and embedded in paraffin before being stained by an hematoxylin/eosin solution. Biopsies were then observed and numerized by using a microscope. All sebaceous glands within a biopsy were measured.

skin [3] = system: skin
Text: Observations and examinations included clinical monitoring of skin reaction and histopathological examination of excised skin specimen at study end.

[4] = topical 1.5% 4-oxo-tretinoin or 2% 4-oxo-isotretinoin, n=5 per compound, serial samples
sebum excretion rate = settings: cited from earlier work
skin [5] = settings: in human, applied topically as cream; cited from earlier work
hairless ("fuzzy") rats = settings: nontoxic dosages (no body weight loss), cited from earlier work
hairless mice = settings: nontoxic dosages (no body weight loss); cited from earlier work
severe acne = settings: oral; cited from earlier work
[6] = system: sebaceous gland size and sebum production; settings: topical versus oral; cited from earlier work
[7] = system: dermal lipogenese and sebum production; settings: topical; cited from earlier work
[8] = 0.1% topical, 0.025 mg/2 cm^2, (Q1DX5)×4 weeks, D25
[9] = 0.5% topical, 0.125 mg/2 cm^2, (Q1DX5)×4 weeks, D25
[10] = 0.1% topical, 0.025 mg/2 cm^2, (Q1DX5)×4 weeks
[11] = 0.2% topical, 0.050 mg/2 cm^2, (Q1DX5)×4 weeks, D25
[12] = 10 mg/kg PO, (Q1DX5)×4 weeks, D25

CC1=C(/C=C/C(C)=C/C=C/C(C)=C\C(=O)O)C(C)(C)CCC1=O [4-oxo-isotretinoin, 4-oxo-13-cis-retinoic acid]
endogenous plasma level [1]: about 4.85±3.89 ng/mL | clinical rating of the acne in the treated area compared with untreated skin [2]: reduces the clinical rating of the acne in the treated area significantly | Mean DPM ± SD, Epidermis (100 mg) (lipogenesis in epidermis; [8]): 5499 ± 2599 DPM | Mean pmole 14C-dextrose ± SD integrated in 100 mg of tissue (epidermis) (lipogenesis in epidermis; [8]): 6.95±3.31 pmole of 14C-Dextrose/100 mg | lipogenesis in epidermis, percent of control group (lipogenesis in epidermis; [8]): 71% | Mean pmole 14C-dextrose ± SD integrated in 100 mg of tissue (epidermis) (lipogenesis in epidermis; 0.1% topical, 0.025 mg/2 cm^2, (Q1DX5)×4 weeks, D25, listed as 4-Oxo-isotretinoin): 6.95 ± 3.31 pmole of 14C-Dextrose/100 mg | Mean DPM ± SD, Epidermis (100 mg) (lipogenesis in epidermis; [9]): 6524 ± 1792 DPM | Mean pmole 14C-dextrose ± SD integrated in 100 mg of tissue (epidermis) (lipogenesis in epidermis; [9]): 8.25±2.28 pmole of 14C-Dextrose/100 mg | lipogenesis in epidermis, percent of control group (lipogenesis in epidermis; [9]): 84% | Mean pmole 14C-dextrose ± SD integrated in 100 mg of tissue (epidermis) (lipogenesis in epidermis; 0.5% topical, 0.125 mg/2 cm^2, (Q1DX5)×4 weeks, D25, listed as 4-Oxo-isotretinoin): 8.25 ± 2.28 pmole of 14C-Dextrose/100 mg | mean sebaceous gland size, Mean ± SD (sebaceous gland size; [10]): 24988±15931 pixel^2 | sebaceous gland size, percent of control group (sebaceous gland size; [10]): (82%) | mean sebaceous gland size, Mean ± SD (sebaceous gland size; 0.1% topical, 0.025 mg/2 cm^2, (Q1DX5)×4 weeks, listed as 4-Oxo-isotretinoin): 24998 ± 15931 pixel^2 | skin irritation (clinical monitoring of skin reaction) (skin [3]; any concentration (0.1, 0.5, 1 or 2%), once daily, 5 days per week, 4 weeks, acetone/ethanol (1:1)): No signs of skin irritation | inter-conversion of the 4-oxo isomers: skin and strip levels of both isomers [4]: skin exposure to both 4-oxo-isotretinoin and 4-oxo-tretinoin could be demonstrated | sebum excretion rate (sebum excretion rate; applied orally): reduces the sebum excretion rate | pharmacological activity relative to parent drug isotretinoin (sebum excretion rate; in vivo): only half as active pharmacologically

CC1=C(/C=C/C(C)=C/C=C/C(C)=C/C(=O)O)C(C)(C)CCC1=O [4-oxo-tretinoin, 4-oxo-all-trans-retinoic acid]
endogenous plasma level [1]: about 9.88±7.57 ng/mL | clinical rating of the acne in the treated area compared with untreated skin [2]: reduces the clinical rating of the acne in the treated area significantly | Mean DPM ± SD, Epidermis (100 mg) (lipogenesis in epidermis; [8]): 7024 ± 1970 DPM | Mean pmole 14C-dextrose ± SD integrated in 100 mg of tissue (epidermis) (lipogenesis in epidermis; [8]): 9.10±5.23 pmole of 14C-Dextrose/100 mg | lipogenesis in epidermis, percent of control group (lipogenesis in epidermis; [8]): 91% | Mean pmole 14C-dextrose ± SD integrated in 100 mg of tissue (epidermis) (lipogenesis in epidermis; 0.1% topical, 0.025 mg/2 cm^2, (Q1DX5)×4 weeks, D25, listed as 4-Oxo-tretinoin): 8.89 ± 2.51 pmole of 14C-Dextrose/100 mg | Mean DPM ± SD, Epidermis (100 mg) (lipogenesis in epidermis; [11]): 4993 ± 2219 DPM | Mean pmole 14C-dextrose ± SD integrated in 100 mg of tissue (epidermis) (lipogenesis in epidermis; [11]): 6.30±2.80 pmole of 14C-Dextrose/100 mg | lipogenesis in epidermis, percent of control group (lipogenesis in epidermis; [11]): 64% | Mean pmole 14C-dextrose ± SD integrated in 100 mg of tissue (epidermis) (lipogenesis in epidermis; 0.2% topical, 0.050 mg/2 cm^2, (Q1DX5)×4 weeks, D25, listed as 4-Oxo-tretinoin): 6.30 ± 2.80 pmole of 14C-Dextrose/100 mg | histopathological examination of treated skin areas (skin [3]; concentration-dependent, once daily, 5 days per week, 4 weeks): concentration-dependent hyperkeratosis, acanthosis and hypertrophy/hyperplasia of sebaceous glands | skin irritation (clinical: reddening (erythema) and occasional scaling) (skin [3]; concentrations ≧0.5% (tested 0.1 to 1.5%), once daily, 5 days per week, 4 weeks): dose-dependent slight to moderate skin irritation | histopathological examination of treated skin areas: necrosis (skin [3]; concentrations ≧1%): occasional necrosis | inter-conversion of the 4-oxo isomers: skin and strip levels of both isomers [4]: skin exposure to both 4-oxo-isotretinoin and 4-oxo-tretinoin could be demonstrated

CC1=C(/C=C/C(C)=C/C=C/C(C)=C\C(=O)O)C(C)(C)CCC1 [13-cis-RA, 13-cis retinoic acid, reference compound]
Mean DPM ± SD, Epidermis (100 mg) (lipogenesis in epidermis; [12]): 5188 ± 1875 DPM | Mean pmole 14C-dextrose ± SD integrated in 100 mg of tissue (epidermis) (lipogenesis in epidermis; [12]): 6.55±2.38 pmole of 14C-Dextrose/100 mg | change of lipogenesis in epidermis versus vehicle group (lipogenesis in epidermis; 10 mg/kg PO, (Q1DX5)×4 weeks, p<0.05): −33% | activity at 10 mg/kg (lipogenesis in epidermis; Rattus norvegicus, 672 h, 10 mg/kg PO, (Q1DX5)×4 weeks, D25, read-out: lipogenesis in epidermis, percent of control group): 67% | mean sebaceous gland size, Mean ± SD (sebaceous gland size; 10 mg/kg PO, (Q1DX5)×4 weeks): 25493±17065 pixel^2 | activity at 10 mg/kg (sebaceous gland size; Rattus norvegicus, 672 h, 10 mg/kg PO, (Q1DX5)×4 weeks, read-out: sebaceous gland size, percent of control group): 83.8% | strength of topical cream that showed local irritation (skin [5]): 0.1% | sebosuppressive effect after topical administration (hairless ("fuzzy") rats; listed as 13-cis retinoic acid): no detectable sebosuppressive effects | sebosuppressive effect after topical administration (hairless ("fuzzy") rats; listed as 13-cis-retinoic acid): substantially no detectable sebosuppressive activity | sebosuppressive effect after topical administration (hairless mice): no detectable sebosuppressive effects | patients with severe acne reaching long-term remission (severe acne): 80% | reduction of effectiveness in reducing sebaceous gland size and suppressing sebum production, topical compared to oral administration [6]: up to 90% | influence on the dermal lipogenese and sebum production [7]: Neither topical tretinoin nor topical isotretinoin have been found to have an influence

CC1=C(/C=C/C(C)=C/C=C/C(C)=C/C(=O)O)C(C)(C)CCC1 [tretinoin, all-trans retinoic acid]
strength of topical cream that showed local irritation (skin [5]): 0.05% | influence on the dermal lipogenese and sebum production [7]: Neither topical tretinoin nor topical isotretinoin have been found to have an influence
